Experimental findings from US20090317372A1, “SMALL MOLECULES FOR THE REDUCTION OF HIGH BLOOD GLUCOSE LEVEL” (priority 2008, published 2009) are described below.

For one test, the system named is C57/BL/6 mice. Put plainly: Glucose tolerance test with normal mice, CCcompound1 and sub-optimal insulin. Format: in vivo. The settings on record: CCcompound1 4.5-mg/kg i.p. 60 min and/or insulin 0.02 IU 15 min prior to glucose. How it is done:
In this experiment, a sub-optimal dose of insulin (0.02 international unit-IU) was used to probe if CCcompound1 indeed can enhance the effect of insulin on blood glucose. Again C57/BL/6 female mice weighing 22-23-g and fasted for 14 hours prior to i.p. glucose administration (3-g/kg), were used. None of the animals received any food during the experiment other than glucose. The animals received i.p. injections of 4.5-mg/kg of CCcompound1 and/or 0.02 Unit insulin 60 min and 15 min prior to glucose administration, respectively. Blood samples were taken and glucose concentrations measured as indicated earlier. Each group included six animals. The data are the mean±std. dev. of 6 determinations, i.e. one determination with each of the six animals.

The next test has as its system ob/ob mice. Put plainly: Blood glucose level of normally fed ob/ob obese diabetic mice, daily treatment. Format: in vivo. Conditions: 4.5-mg/kg s.c. once daily. From the text:
Adult female leptin-deficient ob/ob obese diabetic inbred specified pathogen free (SPF) hygienic category mice from Charles River VRF1 were used for these experiments. The mice weighed 32-36-g at arrival. The ob/ob obese mouse is an extensively used animal model for the study of non-insulin-dependent-diabetes mellitus (NIDDM). The mutation was propagated in the C57BL/6J (BL/6) inbred strain. Homozygous obese (ob/ob) animals developed hyperglycemia due to insulin resistance, hyperinsulinemia (to compensate for reduced insulin action), and obesity. In these animals gluconeogenesis is enhanced despite their hyperinsulinemic state. The animals were kept in macrolon cages at 22-24° C. and 50-60% humidity, with lighting regimen of 12/12 h light dark. They had free access to tap water and were fed a sterilized standard diet (Charles River VRF1, autoclavable). The animals were cared for according to the “Guiding Principles for the Care and Use for Animals” based upon the Helsinki declaration. The ob/ob mice gained weight rapidly and developed a marked obesity by 5-6 weeks of age. […] When arrived they were 5 weeks old (when the experiment was performed with CCcompound1) or 4.5 weeks old (when the experiment was performed with CCcompound3 and CCcompound19). The treatments started 8 days later in the experiment performed with CCcompound1 and 10 days later in the experiment performed with CCcompound3 and CCcompound19. Experimental groups selected from ob/ob mice were injected subcutaneously (s.c.) at regular intervals once daily for 14 days with CCcompound1 or an analog (CCcompound3 or CCcompound19) each at the dose of 4.5-mg per kg. Control groups were also selected from ob/ob mice that remained untreated during the entire length of the experiment. In the first experiment, for which the data is presented in TABLE 11, blood samples were taken either 45 min or 6 hours after treatments with CCcompound1. In the second experiment, for which the data is presented in TABLE 12, blood samples were taken 45 min after treatments with the analogs of CCcompound1. Blood glucose was determined with the Fast Glucose C test. Both the untreated and CC compound-treated groups included 5 animals. The data are the mean±std. dev.

The subject of another test is PC-3 human tumors. Briefly: PC-3 tumor/cachexia model: tumor weight and body weight. Format: in vivo, mice. How it is done:
The experimental PC-3 human tumors were developed in a homozygous line of C.B.-171 cr scid/scid adult female mice that were kept at specified pathogen free (SPF) hygienic level. Treatments with CCcompound1 (4.5 mg/kg) were started on day 12 after tumor implantation and conducted for 5+5 days with 2 treatment-free days inserted between the 2 series of treatments. A control group (10 mice) received no treatment, while another group (10 mice) received 4.5-mg/kg of CCcompound1 once every day between days 12-24. The results, shown in TABLE 8, indicate that between days 12 and 24 after tumor implantation, the prostate tumor caused about 6.9-g loss in lean body weight (4.1-g loss in total body weight). In contrast, animals treated with CCcompound1 actually gained 6.3-g lean body weight.

[1] abbreviates: 4.5 mg/kg group, day 12 (start of treatment).
Where [2] appears, read: 4.5 mg/kg once daily days 12-24, day 24.

SMILES strings stand for the structures.

Regarding `Cc1c(OCC(O)C[N+](C)(C)C)cc2c(=O)c3ccccc3sc2c1C.[Cl-]` (stereo not shown) [CCcompound 1, [3-(3,4-Dimethyl-9-oxo-9H-thioxanthen-2-yloxy)-2-hydroxypropyl]trimethyl-ammonium chloride], the Blood glucose in the test on C57/BL/6 mice (0 min) is 1.8 ± 0.4 mM; in the test with C57/BL/6 mice (30 min), 5.1 ± 0.5 mM; with C57/BL/6 mice (60 min), 4.1 ± 0.4 mM; in the test with C57/BL/6 mice (120 min), 3.3 ± 0.3 mM. In addition, the Glucose level was found to be 6.2 ± 0.4 mM with ob/ob mice (45 min after treatment, day 1); 7.4 ± 0.3 mM in the test on ob/ob mice (45 min after treatment, day 4); 8.4 ± 0.2 mM in the test on ob/ob mice (45 min after treatment, day 7); 9.2 ± 0.3 mM in the test on ob/ob mice (45 min after treatment, day 11); 10.2 ± 0.3 mM in the test with ob/ob mice (45 min after treatment, day 14); 11.3 ± 0.7 mM in the test with ob/ob mice (6 hours after treatment, day 4). Also, the Glucose level with ob/ob mice (6 hours after treatment, day 7) was 13.8 ± 0.4 mM; in the test on ob/ob mice (6 hours after treatment, day 11), 15.7 ± 0.4 mM; with ob/ob mice (6 hours after treatment, day 14), 17.5 ± 0.4 mM; in the test with ob/ob mice (blood 6 hours after treatment, day 1) it was 9.3 ± 0.4 mM. The figures for the “Body weight (lean)” value with PC-3 human tumors (setting [1]) and with PC-3 human tumors (setting [2]) were 25.0 g and 30.3 g, respectively. Besides, the results for the Tumor weight in the test with PC-3 human tumors (setting [1]) and with PC-3 human tumors (setting [2]) were 0.2 ± 0.1 g and 1.6 ± 0.4 g, respectively. In addition, the Total weight turned out to be 25.2 ± 1.3 g with PC-3 human tumors (4.5 mg/kg group, day 12 after tumor transplantation (start of treatment)) and 31.9 ± 2.5 g with PC-3 human tumors (setting [2]). Besides, the “Gain in lean body weight” value in the test with PC-3 human tumors (4.5 mg/kg, between days 12 and 24) came out at 6.3 g. Moreover, in the test with PC-3 human tumors (4.5 mg/kg, days 12-24), the “Reduction of tumor volume” value is recorded as approximately 50%.
